Data taken from US20090197859A1 (Pfizer Inc., priority 2008, published 2009).
Counter-ions that a name gives are not always drawn.

What was measured:
[1] = biological target: T1, cloned human 5-HT6 receptor (Homo sapiens, UniProt P50406); experiment: 5-HT6 Receptor Binding Assay ([3H]-LSD radioligand, SPA); details: for inhibition at 1 µM: read-out: 5HT6 % inh @ 1 uM
T1 construct: host or cells: HeLa cells, G-418 selection, membrane preparation
Description: 5-HT6 Receptor Binding Assay
Hela cells containing the cloned human 5-HT6 receptor were acquired from Dr. David R. Sibley's laboratory in National Institute of Health (see Sibley, D. R., J. Neurochemistry, 66, 47-56, 1996). Cells were grown in high glucose Dulbecco's modified Eagle's medium, supplemented with L-glutamine, 0.5% sodium pyruvate, 0.3% penicillin-streptomycin, 0.025% G-418 and 5% Gibco fetal bovine serum and then were harvested, when confluent, in cold phosphate buffered saline.
Harvested intact cells were washed once in cold phosphate-buffered saline. The cells were pelleted and resuspended in 100 ml of cold 50 mM Tris, 5 mM EDTA and 5 mM EGTA, pH 7.4. Homogenization was with a Vir Tishear generator, 4 cycles for 30 seconds each at setting 50. The homogenized cells were centrifuged at […] for 10 minutes and the supernatant was removed. The pellet was resuspended in 100 ml of the above buffer and rehomogenized for 2 cycles. The rehomogenized cells were then centrifuged at […] for 10 minutes and the supernatant was removed. The combined supernatant (200 ml) was centrifuged at 23,000 RPM (80,000×g) for 1 hour in a Beckman Rotor (42.1 Ti). The membrane pellet was resuspended in […] of assay buffer containing HEPES 20 mM, MgCl2 10 mM, NaCl 150 mM, EDTA 1 mM, pH 7.4 and stored frozen in aliqouts at −70° C.
The radioligand binding assay used [^3H]-lysergic acid diethylamide (LSD). The assay was carried out in Wallac 96-well sample plates by the addition of 11 μl of the test sample at the appropriate dilution (the assay employed 11 serial concentrations of samples run in duplicate), 11 μl of radioligand, and 178 μl of a washed mixture of WGA-coated SPA beads and membranes in binding buffer. The plates were shaken for about 5 minutes and then incubated at room temperature for 1 hour. The plates were then loaded into counting cassettes and counted in a Wallac MicroBeta Trilux scintillation counter.
Binding Constant Determination may be obtained by performing serial dilutions, e.g., eleven dilutions, of test compounds into assay plates using the PE/Cetus Pro/Pette pipetter. These dilutions are followed by radioligand and the bead-membrane mixture prepared as described above. After obtaining the specifically bound cpm, the data are fit to a one-site binding model using GraphPad Prism ver. 2.0. Estimated IC50 values are converted to Ki values using the Cheng-Prusoff equation (Cheng, Y. C. et al., Biochem. Pharmacol., 22, 3099-108, 1973).

T1 sequence (P50406 whole entry): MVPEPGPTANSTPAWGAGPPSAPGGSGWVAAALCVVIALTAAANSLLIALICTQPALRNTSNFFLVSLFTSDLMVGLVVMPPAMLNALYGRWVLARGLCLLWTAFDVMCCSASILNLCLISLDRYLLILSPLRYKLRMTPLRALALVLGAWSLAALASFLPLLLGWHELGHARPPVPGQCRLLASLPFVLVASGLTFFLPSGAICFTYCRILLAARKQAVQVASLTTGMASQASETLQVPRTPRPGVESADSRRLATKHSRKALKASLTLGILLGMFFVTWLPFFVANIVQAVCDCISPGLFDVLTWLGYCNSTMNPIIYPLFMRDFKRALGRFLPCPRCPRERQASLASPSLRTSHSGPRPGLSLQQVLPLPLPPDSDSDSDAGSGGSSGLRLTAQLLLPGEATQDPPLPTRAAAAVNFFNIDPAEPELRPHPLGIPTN

| SMILES | melting point [°C] | inhibition at 1 µM [1] [%] | inhibition at 0.3 µM ([1]; 0.3 μM (stated in cell), read-out: 5HT6 % inh @ 0.3 μM) [%] |
| --- | --- | --- | --- |
| CN1CCC(c2cccc(C(=O)N3CCC(Oc4cccc(F)c4)CC3)n2)C1 (stereo not shown) (as salt: hydrochloride) [Example 16, [4-(3-Fluoro-phenoxy)-piperidin-1-yl]-[6-(1-methyl-pyrrolidin-3-yl)-pyridin-2-yl]-methanone] | 85 to 86 | – | – |
| CN1CCN(c2cccc(C(=O)N3CC=C(c4ccccc4F)CC3)n2)CC1 (as salt: hydrochloride) [Example 21, [4-(2-Fluoro-phenyl)-3,6-dihydro-2H-pyridin-1-yl]-[6-(4-methyl-piperazin-1-yl)-pyridin-2-yl]-methanone] | 176.7 to 177.2 | – | – |
| Cc1cccc(F)c1C1CCN(C(=O)c2cccc(N3CCN(C)CC3)n2)CC1 (as salt: hydrochloride) [Example 23, [4-(2-Fluoro-6-methyl-phenyl)-piperidin-1-yl]-[6-(4-methyl-piperazin-1-yl)-pyridin-2-yl]-methanone] | 163 to 164.7 | – | – |
| Cc1ccccc1C1CCCCN1C(=O)c1cccc(N2CCNCC2)n1 (stereo not shown) (as salt: hydrochloride) [Example 26, (6-Piperazin-1-yl-pyridin-2-yl)-(2-o-tolyl-piperidin-1-yl)-methanone] | 105.6 to 106 | – | – |
| O=C(c1cccc(N2CCCNCC2)n1)N1CC[C@H](Oc2ccccc2F)C1 (as salt: hydrochloride) [Example 30, (6-[1,4]Diazepan-1-yl-pyridin-2-yl)-[(S)-3-(2-fluoro-phenoxy)-pyrrolidin-1-yl]-methanone] | 75 to 77 | – | – |
| CN1CCCN(c2cccc(C(=O)N3CC[C@@H](Oc4ccccc4F)C3)n2)CC1 (as salt: hydrochloride) [Example 46, [(R)-3-(2-Fluoro-phenoxy)-pyrrolidin-1-yl]-[6-(4-methyl-[1,4]diazepan-1-yl)-pyridin-2-yl]-methanone] | 106 to 108 | – | – |
| O=S(=O)(c1cccc(N2CCNCC2)n1)N1CCC(c2ccccc2F)CC1 (as salt: hydrochloride) [Example 51, 1-{6-[4-(2-Fluoro-phenyl)-piperidine-1-sulfonyl]-pyridin-2-yl}-piperazine] | 211 to 212.2 | – | – |
| Cc1ccccc1O[C@@H]1CCN(C(=O)c2cccc(N3CCCN(C)CC3)n2)C1 (as salt: hydrochloride) [Example 53, [6-(4-Methyl-[1,4]diazepan-1-yl)-pyridin-2-yl]-((R)-3-o-tolyloxy-pyrrolidin-1-yl)-methanone] | 94 to 96 | – | – |
| Cc1ccccc1C1CCN(S(=O)(=O)c2cccc(N3CCN(C)CC3)n2)CC1 (as salt: hydrochloride) [Example 78, 1-Methyl-4-[6-(4-o-tolyl-piperidine-1-sulfonyl)-pyridin-2-yl]-piperazine] | 203 to 204.5 | – | – |
| Cc1ccccc1OC1CCN(C(=O)c2cccc(C3CCN(C)CC3)n2)CC1 (as salt: hydrochloride) [Example 95, (1′-Methyl-1′,2′,3′,4′,5′,6′-hexahydro-[2,4′]bipyridinyl-6-yl)-(4-o-tolyloxy-piperidin-1-yl)-methanone] | 118 to 120 | – | – |
| Cc1cccc(OC2CCN(C(=O)c3cccc(C4CCN(C)C4)n3)CC2)c1 (stereo not shown) [Example 17, [6-(1-Methyl-pyrrolidin-3-yl)-pyridin-2-yl]-(4-m-tolyloxy-piperidin-1-yl)-methanone] | 89 to 90 | 96.4 | – |
| Cc1cccc(O[C@@H]2CCN(C(=O)c3cccc(N4CCCN(C)CC4)n3)C2)c1 [Example 19, [6-(4-Methyl-[1,4]diazepan-1-yl)-pryidin-2-yl]-((R)-3-m-tolyloxy-pyrrolidin-1-yl)-methanone] | 82 to 84 | 78.5 | – |
| CN1CCN(c2cccc(C(=O)N3CCC(c4ccccc4F)CC3)n2)CC1 [Example 20, [4-(2-Fluoro-phenyl)-piperidin-1-yl]-[6-(4-methyl-piperazin-1-yl)-pyridin-2-yl]-methanone] | 111 to 113 | 101 | – |
| Cc1ccccc1C1=CCN(C(=O)c2cccc(N3CCN(C)CC3)n2)CC1 [Example 24, [6-(4-Methyl-piperazin-1-yl)-pyridin-2-yl]-(4-o-tolyl-3,6-dihydro-2H-pyridin-1-yl)-methanone] | 160.7 to 162.3 | – | 92 |
| O=C(c1cccc(N2CCCNCC2)n1)N1CC[C@H](Oc2ccc(F)cc2)C1 [Example 25, (6-[1,4]Diazepan-1-yl-pyridin-2-yl)-[(S)-3-(4-fluoro-phenoxy)-pyrrolidin-1-yl]-methanone] | 72 to 74 | 75.4 | – |
| O=C(c1cccc(N2CCNCC2)n1)N1CCCCC1c1cccc(F)c1 (stereo not shown) [Example 27, [2-(3-Fluoro-phenyl)-piperidin-1-yl]-(6-piperazin-1-yl-pyridin-2-yl)-methanone] | 156.8 to 157 | 94.5 | – |
| Cc1cccc(C2CCCCN2C(=O)c2cccc(N3CCNCC3)n2)c1 (stereo not shown) [Example 28, (6-Piperazin-1-yl-pyridin-2-yl)-(2-m-tolyl-piperidin-1-yl)-methanone] | 154.1 to 155.5 | 94.6 | – |
| O=C(c1cccc(N2CCNCC2)n1)N1CCCCC1c1ccc(F)cc1 (stereo not shown) [Example 29, [2-(4-Fluoro-phenyl)-piperidin-1-yl]-(6-piperazin-1-yl-pyridin-2-yl)-methanone] | 102 to 103.2 | 75.1 | – |
| O=C(c1cccc(N2CCCNCC2)n1)N1CCCCC1c1ccccc1F (stereo not shown) [Example 31, (6-[1,4]Diazepan-1-yl-pyridin-2-yl)-[2-(2-fluoro-phenyl)-piperidin-1-yl]-methanone] | 183.4 to 184 | 94.5 | – |
| Cc1ccccc1C1CCCCN1C(=O)c1cccc(N2CCCNCC2)n1 (stereo not shown) [Example 33, (6-[1,4]Diazepan-1-yl-pyridin-2-yl)-(2-o-tolyl-piperidin-1-yl)-methanone] | 123.3 to 124 | 84.6 | – |
| Cc1cccc(C2CCCCN2C(=O)c2cccc(N3CCCNCC3)n2)c1 (stereo not shown) [Example 34, (6-[1,4]Diazepan-1-yl-pyridin-2-yl)-(2-m-tolyl-piperidin-1-yl)-methanone] | 138.5 to 139 | 95.3 | – |
| Cc1ccccc1O[C@H]1CCN(C(=O)c2cccc(N3CCCNCC3)n2)C1 [Example 36, (6-[1,4]Diazepan-1-yl-pyridin-2-yl)-((S)-3-o-tolyloxy-pyrrolidin-1-yl)-methanone] | 140 to 142 | 93.5 | – |
| Cc1ccc(C2CCCCN2C(=O)c2cccc(N3CCCNCC3)n2)cc1 (stereo not shown) [Example 37, (6-[1,4]Diazepan-1-yl-pyridin-2-yl)-(2-p-tolyl-piperidin-1-yl)-methanone] | 147.9 to 148.5 | 71.6 | – |
| O=C(c1cccc(N2CCCNCC2)n1)N1CCC[C@H](Oc2cccc(F)c2)C1 [Example 38, (6-[1,4]Diazepan-1-yl-pyridin-2-yl)-[(S)-3-(3-fluoro-phenoxy)-piperidin-1-yl]-methanone] | 96.9 to 97.5 | 99.4 | – |
| O=C(c1cccc(N2CCCNCC2)n1)N1CCC[C@H](Oc2ccc(F)cc2)C1 [Example 39, (6-[1,4]Diazepan-1-yl-pyridin-2-yl)-[(S)-3-(4-fluoro-phenoxy)-piperidin-1-yl]-methanone] | 107.9 to 109 | 82 | – |
